# Test results as given in article PMC11101637, “Bioinformatics leading to conveniently accessible, helix enforcing, bicyclic ASX motif mimics (BAMMs)” (Nature Communications, 2024).
# Peptide text beside a SMILES is read from it. * marks the point of attachment. X3 = C[C@@H]1NC(=O)[C@H](CCC(N)=O)NC(=O)[C@H](CC(=O)O)NC(=O)[C@@H](N)CSCc2cc3cc(c2)CSC[C@@H](C(=O)*)NC(=O)[C@H](CSC3)NC1=O; X1 = C[C@@H]1NC(=O)[C@H](CC(=O)O)NC(=O)[C@@H](N)CSCc2cc3cc(c2)CSC[C@@H](C(=O)*)NC(=O)[C@H](CSC3)NC(=O)[C@H](CO)NC1=O; X2 = C[C@@H]1NC(=O)[C@H](C)NC(=O)[C@H](CC(=O)O)NC(=O)[C@@H](N)CSCc2cc3cc(c2)CSC[C@@H](C(=O)*)NC(=O)[C@H](CSC3)NC1=O
# Columns and labels:
# [1] = CD spectroscopy: percent helicity and ellipticity ratio 222/208 nm; assay type: physicochemical; settings: for % helicity: 5-30 μM peptide, three scans averaged, [θ]222/[θ]max
# Procedure: Circular dichroism (CD) experiments
# Concentrations of the stock solution were determined by […] absorption of Trp or 275 nm absorption of Tyr (and TMB, if present in peptides). Each sample was dissolved in 1x PBS (pH 7.4), 10% TFE/PBS or 20% TFE/PBS with the final concentration between 5 to 30 μM. CD spectra were acquired using circular dichroism spectrometer (Chirascan) equipped with a temperature controller using 1 mm cell at a scan speed of 0.5 nm/sec at indicated temperature. Each sample was scanned three times and the averaged spectrum was smoothed.
# Calculation of percent helicity
# For simplicity, ‘helicity’ or ‘helical’ in the following text all refers to α-type. For each peptide, mean residue ellipticities ([θ]/(c*n), c = concentration of the peptide, n = number of amino acids in the peptide) were used to calculate % helicity, which is an empirical indicator of peptide helicity. […] (n = number of amino acids in the peptide, T = 25.0 °C).
# [2] = In vitro peptide stability in human serum; assay type: in vitro ADME; settings: 25% male human serum diluted in RPMI medium, 150 μM peptide, 37 °C, serum pre-equilibrated 15 min, methanol precipitation, RP-HPLC 210 nm peak area relative to 0 h, LC-MS for products
# Procedure: In vitro peptide stability in human serum[50]
# Male human serum (H-4522) was obtained from Sigma Aldrich (Missouri, USA). […] The initial time is recorded as peptides were added. The mixture was incubated at 37 °C and an aliquot of 40 μL was removed at different time intervals. […] The supernatant was analyzed in analytical RP-HPLC to calculate the amount of tested peptides, and in LCMS to analyze degradation products. The eluted peptides were detected by absorbance at 210 nm and quantified by their peak areas relative to the initial peak areas (0 h).
# [3] = circular dichroism; settings: PBS; pH 7.4; 25 °C; 5-30 uM
# [4] = target: T1, cyclin E (Homo sapiens, UniProt P24864); assay: Direct FP assay to measure Kd of fluorescent peptides; assay type: binding; settings: FITC-labelled peptide 20 nM final, cyclin E up to 2.4 μM final, PBS, 3 h, n=1 independent experiment in duplicate wells; not saturated, estimate value; read-out: Kd, fluorescence polarization
# T1 construct: purchased Sino Biological
# T1 sequence (P24864 whole entry): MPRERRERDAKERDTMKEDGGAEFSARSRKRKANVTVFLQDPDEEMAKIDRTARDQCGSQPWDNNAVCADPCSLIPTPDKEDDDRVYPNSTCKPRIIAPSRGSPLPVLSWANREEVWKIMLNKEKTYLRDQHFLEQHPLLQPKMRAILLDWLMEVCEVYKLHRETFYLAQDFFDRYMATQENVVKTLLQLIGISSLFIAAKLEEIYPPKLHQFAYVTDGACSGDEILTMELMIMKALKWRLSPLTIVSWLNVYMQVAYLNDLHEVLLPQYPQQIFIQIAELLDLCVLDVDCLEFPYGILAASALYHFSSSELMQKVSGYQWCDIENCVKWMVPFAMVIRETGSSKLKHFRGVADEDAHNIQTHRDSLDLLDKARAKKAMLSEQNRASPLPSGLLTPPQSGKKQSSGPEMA
# Procedure: Direct FP assay to measure Kd of fluorescent peptides
# Polarized fluorescence intensities were measured on Synergy H4 plate reader with excitation and emission wavelengths of 485 and 535 nm with 20 nm band widths, respectively. The optics position is Top 510 nm with Gain set as 100. Read Speed is normal and read height is 7 mm. Cyclin proteins were bought from Sino Biological and after reconstitution it should be used immediately. […] To each well, 10 μL 40 nM of fluorescent peptides in PBS was added. Various concentrations of cyclin E (from Sino Biological, Inc.) were prepared (0.16–4.8 μM) and 10 μL were added to each well. The plate was shaken in the dark for 3 h. Wells containing only the peptide and PBS buffer were used as a control. Each mixture was prepared in duplicates.
# [5] = target: T1, cyclin E; assay: Trp fluorescence quenching assay; assay type: binding; settings: 0.8 μM cyclin E in PBS pH 7.4, 25 °C, ex 295 nm, em 338 nm; n = 2 independent experiments, ± S.D.
# Procedure: Trp fluorescence quenching assay
# Fluorescence quenching of the single tryptophan in cyclin E was measured by using a Cary Eclipse (Varian) equipped with a front-face fluorescence accessory at 25 °C, by using 10-nm excitation and 10 nm emission bandwidths. The excitation wavelength was 295 nm and the emission spectra were measured between 315 and 395 nm. Titrations were performed in a 0.7-ml quartz fluorescence cuvette containing 0.5 mL 0.8 μM protein in PBS buffer, pH 7.4, and by the successive addition of 0.5–1 μL of compound stock solutions. After each addition, the cuvette was shaken to enable fast mixture, and there were 10 mins interval between two additions to ensure equilibrium of the mixture. The measurements were repeated at least three times at each concentration. Fluorescence intensities at 338 nm at increasing concentrations of the quencher were collected. Dissociation equilibrium constant (Kd) values were determined by fitting data to the equation below[42],[43].
# [6] = CD in PBS buffer (pH 7.4, 10 mM), 25.0 °C, 1 mm cell
compound,measurement,setting,value
CC[C@H](C)[C@H](NC(=O)[C@H](CCC(=O)O)NC(=O)[C@H](C)NC(=O)[C@H](CC(C)C)NC(=O)[C@H](CCC(N)=O)NC(=O)[C@@H]1CSCc2cc3cc(c2)CSC[C@H](N)C(=O)N[C@@H](CC(=O)O)C(=O)N[C@@H](CCC(N)=O)C(=O)N[C@@H](C(C)C)C(=O)N[C@@H](CSC3)C(=O)N1)C(=O)N[C@@H](Cc1ccc(O)cc1)C(N)=O [1B],ellipticity ratio 222/208 nm,"[1]; CD in 10% TFE/PBS, 25 °C",0.86
same,% helicity,"[1]; CD in 10% TFE/PBS, 25 °C",43%
same,% helicity,[1]; [6],17%
same,ellipticity ratio 222/208 nm,"[1]; CD in PBS, 25 °C",0.48
same,half-life at 150 μM,[2],5.1 h
same,helicity,[3],17%
CC(C)C[C@H](NC(=O)[C@H](C)NC(=O)[C@H](CCCNC(=N)N)NC(=O)[C@H](CC(C)C)NC(=O)[C@H](CC(C)C)NC(=O)[C@@H]1CSCc2cc3cc(c2)CSC[C@H](N)C(=O)N[C@@H](CC(=O)O)C(=O)N[C@@H](CCC(N)=O)C(=O)N[C@@H](C)C(=O)N[C@@H](CSC3)C(=O)N1)C(=O)N[C@@H](CC(=O)O)C(=O)N[C@@H](CCC(N)=O)C(=O)N[C@@H](Cc1ccc(O)cc1)C(N)=O [2B] (X3-LLRALDQY-NH2; N-terminus and C-terminus assumed),ellipticity ratio 222/208 nm,"[1]; CD in 10% TFE/PBS, 25 °C",1
same,% helicity,"[1]; CD in 10% TFE/PBS, 25 °C",42%
same,% helicity,[1]; [6],25%
same,ellipticity ratio 222/208 nm,"[1]; CD in PBS, 25 °C",0.91
same,half-life at 150 μM,[2],2.9 h
same,helicity,[3],25%
CC[C@H](C)[C@H](NC(=O)[C@@H]1CSCc2cc3cc(c2)CSC[C@H](N)C(=O)N[C@@H](CC(=O)O)C(=O)N[C@@H](C)C(=O)N[C@@H](CO)C(=O)N[C@@H](CSC3)C(=O)N1)C(=O)N[C@@H](CCCNC(=N)N)C(=O)N[C@@H](CCC(=O)O)C(=O)N[C@H](C(=O)N[C@@H](CO)C(=O)N[C@@H](CC(C)C)C(=O)N[C@@H](CC(C)C)C(=O)N[C@@H](CCCCN)C(=O)N[C@@H](CCC(=O)O)C(=O)N[C@@H](Cc1ccc(O)cc1)C(N)=O)[C@@H](C)CC [3B] (X1-IREISLLKEY-NH2; N-terminus and C-terminus assumed),ellipticity ratio 222/208 nm,"[1]; CD in 10% TFE/PBS, 25 °C",0.84
same,% helicity,"[1]; CD in 10% TFE/PBS, 25 °C",34%
same,% helicity,[1]; [6],17%
same,ellipticity ratio 222/208 nm,"[1]; CD in PBS, 25 °C",0.5
same,half-life at 150 μM,[2],3.5 h
same,helicity,[3],17%
CC[C@H](C)[C@H](NC(=O)[C@@H]1CSCc2cc3cc(c2)CSC[C@H](NC(=O)[C@H](CO)NC(=O)[C@H](C)NC(=O)[C@H](CC(=O)O)NC(=O)[C@@H](NC(=O)CCNC(=O)CCNC(=O)CCNC(=S)Nc2ccc4c(c2)C(=O)OC42c4ccc(O)cc4Oc4cc(O)ccc42)CSC3)C(=O)N1)C(=O)N[C@@H](CCCNC(=N)N)C(=O)N[C@@H](CCC(=O)O)C(=O)N[C@H](C(=O)N[C@@H](CO)C(=O)N[C@@H](CC(C)C)C(=O)N[C@@H](CC(C)C)C(=O)N[C@@H](CCCCN)C(=O)N[C@@H](CCC(=O)O)C(=O)N[C@@H](Cc1ccc(O)cc1)C(N)=O)[C@@H](C)CC [3Bf],Kd,[4],4.6 ± 2.4 µM
CC[C@H](C)[C@H](NC(=O)[C@H](CC(N)=O)NC(=O)[C@H](CCCCN)NC(=O)[C@@H]1CSCc2cc3cc(c2)CSC[C@H](N)C(=O)N[C@@H](CC(=O)O)C(=O)N[C@@H](C)C(=O)N[C@@H](C)C(=O)N[C@@H](CSC3)C(=O)N1)C(=O)N[C@@H](C)C(=O)N[C@@H](CO)C(=O)N[C@@H](CC(C)C)C(=O)N[C@@H](CC(C)C)C(=O)N[C@@H](CCCNC(=N)N)C(=O)N[C@H](C(=O)N[C@@H](CCC(N)=O)C(=O)N[C@@H](C)C(=O)N[C@@H](Cc1c[nH]cn1)C(=O)N[C@H](C(=O)N[C@@H](CCCNC(=N)N)C(=O)N[C@@H](CCCCN)C(=O)N[C@@H](CCCCN)C(=O)N[C@@H](CCSC)C(=O)N[C@H](C(=O)N[C@@H](Cc1ccc(O)cc1)C(N)=O)C(C)C)[C@@H](C)CC)C(C)C [4B] (X2-KNIASLLRVQAHIRKKMVY-NH2; N-terminus and C-terminus assumed),ellipticity ratio 222/208 nm,"[1]; CD in 10% TFE/PBS, 25 °C",1
same,% helicity,"[1]; CD in 10% TFE/PBS, 25 °C",45%
same,% helicity,[1]; [6],22%
same,ellipticity ratio 222/208 nm,"[1]; CD in PBS, 25 °C",0.64
same,half-life,[2],1.1 h
CC[C@H](C)[C@H](NC(=O)[C@H](CC(N)=O)NC(=O)[C@H](CCCCN)NC(=O)[C@H](CSC)NC(=O)[C@H](CSC)NC(=O)[C@H](C)NC(=O)[C@H](C)NC(=O)[C@H](CC(=O)O)NC(=O)[C@@H](N)CSC)C(=O)N[C@@H](C)C(=O)N[C@@H](CO)C(=O)N[C@@H](CC(C)C)C(=O)N[C@@H](CC(C)C)C(=O)N[C@@H](CCCNC(=N)N)C(=O)N[C@H](C(=O)N[C@@H](CCC(N)=O)C(=O)N[C@@H](C)C(=O)N[C@@H](Cc1c[nH]cn1)C(=O)N[C@H](C(=O)N[C@@H](CCCNC(=N)N)C(=O)N[C@@H](CCCCN)C(=O)N[C@@H](CCCCN)C(=O)N[C@@H](CCSC)C(=O)N[C@H](C(=O)N[C@@H](Cc1ccc(O)cc1)C(N)=O)C(C)C)[C@@H](C)CC)C(C)C [4m] (H-C(Me)DAAC(Me)C(Me)KNIASLLRVQAHIRKKMVY-NH2; N-terminus and C-terminus assumed),ellipticity ratio 222/208 nm,"[1]; CD in 10% TFE/PBS, 25 °C",0.73
same,% helicity,"[1]; CD in 10% TFE/PBS, 25 °C",35%
same,% helicity,[1]; [6],11%
same,ellipticity ratio 222/208 nm,"[1]; CD in PBS, 25 °C",0.29
same,half-life,[2],< 1 h
Ac-ASTAIREISLLKEY-NH2 [3l],ellipticity ratio 222/208 nm,"[1]; CD in 10% TFE/PBS, 25 °C",0.34
same,% helicity,"[1]; CD in 10% TFE/PBS, 25 °C",20%
same,% helicity,[1]; [6],11%
same,ellipticity ratio 222/208 nm,"[1]; CD in PBS, 25 °C",0.18
same,Kd,[5],8.6 ± 2.8 µM
same,helicity,[3],11%
Ac-KNIASLLRVQAHIRKKMVY-NH2 [4l],ellipticity ratio 222/208 nm,"[1]; CD in 10% TFE/PBS, 25 °C",0.69
same,% helicity,"[1]; CD in 10% TFE/PBS, 25 °C",35%
same,% helicity,[1]; [6],14%
same,ellipticity ratio 222/208 nm,"[1]; CD in PBS, 25 °C",0.27
same,half-life,[2],< 1 h
same,helicity,[3],14%
